These are literature values, as cited in paper PMC8305651 (International Journal of Molecular Sciences, 2021).

Molecules are shown by their SMILES.

For this data set the following is noted: cited from earlier work.

As for `O=c1cc(-c2ccc(O)c(O)c2)oc2cc(O)cc(O)c12` [luteolin], the bioavailability result is listed as “low bioavailability”.
